Experimental data as given in patent publication US9012471B2, “Glucose metabolism modulating compounds” (The Trustees of Columbia University in the City of New York, priority 2008, dated 2015).

Columns and labels:
Lewis rats [1] = assay: Intraperitoneal glucose tolerance test (IPGTT), blood glucose; format: in vivo, rat; details: for hypoglycemic activity in IPGTT (improvement of glucose tolerance): 2 mg/kg i.v., Lewis rats; for decrease of AUC IPGTT: 2 mg/kg i.v. 30 minutes before glucose 2 g/kg I.P.
Procedure: Rats were handled daily to minimize nonspecific stress for more than 7 days before the experiments began. In most experiments, it was necessary to measure blood glucose in fasting animals. For these groups, food was removed at the beginning of the light cycle, 6 hours before glucose levels were tested.
Sixty minutes prior to intraperitoneal glucose tolerance testing (IPGTT), anesthesia of male Lewis rats was induced with isoflurane (3-4% in oxygen) and maintained with 1-2% isoflurane in oxygen.
Anaesthetized rats were administered TBZ at the indicated dose by intravenous (i.v.) injection using the penile vein. […] Control rats received injections of vehicle alone (10% DMSO in Saline).
(§1) Animals were fully recovered for at least 30 minutes before receiving IPGTT. In specified experiments, L-DOPA was injected interperitoneal (I.P.) at the specified dose at the initiation of IPGTT. Abnormal glucose tolerance was induced by a single I.P. injection of streptozotocin (STZ) (Sigma Aldrich, St. Louis, Mo.) (50 mg/kg) to animals that had been fasted 4 hours to enhance the efficacy of STZ.
(§2) Blood samples were collected between 12:00 noon and 2:00 p.m. from a superficial blood vessel in the tails of the rats following 6 hours of fasting. The fasting blood glucose (BG) levels of the rats were measured using an Accu-Check blood glucose monitoring system (Roche Diagnostics, Sommerville, N.J.). IPGTT was performed in 6-hour fasting anaesthetized animals as previously described (Weksler-Zangen, et al. 2001). Briefly, after baseline BG measurements, animals received an I.P. injection of 2 grams of glucose/kg body weight. To minimize stress during the procedure, rats were handled by the same operator during acclimatization and later during weighing and IPGTT. Blood samples (50 μl or 150 μl) were collected at baseline and then again 15, 30, 60, 90, and 120 minutes following I.P. injection of glucose. Blood glucose concentrations were measured immediately on these samples and the remainder processed. Plasma was immediately separated by centrifugation at 3,000×g for 15 minutes and then stored at −80° C. until analysis.
(§3) Insulin and glucagon concentration measurements in rat plasma were performed by ELISA as per the manufacturer's instructions using kits from Linco Research Inc. (St. Charles, Mich.) and Alpco Diagnostics (Salem, N.H.), respectively. To validate the test, saline injections were performed by the same method. […] The area under the insulin, glucagon and IPGTT glucose concentration×time curve (AUC IPGTT) was calculated by the trapezoidal rule.

DPP-IV = biological target: T1, DPP-IV (Homo sapiens, UniProt P27487); assay: DPP profiling service (BPS Bioscience), in vitro; format: biochemical; details: concentrations up to 10 μM
T1 construct: purchased BPS Bioscience, Inc. (San Diego, Calif.)
T1 sequence (P27487 whole entry, species assumed): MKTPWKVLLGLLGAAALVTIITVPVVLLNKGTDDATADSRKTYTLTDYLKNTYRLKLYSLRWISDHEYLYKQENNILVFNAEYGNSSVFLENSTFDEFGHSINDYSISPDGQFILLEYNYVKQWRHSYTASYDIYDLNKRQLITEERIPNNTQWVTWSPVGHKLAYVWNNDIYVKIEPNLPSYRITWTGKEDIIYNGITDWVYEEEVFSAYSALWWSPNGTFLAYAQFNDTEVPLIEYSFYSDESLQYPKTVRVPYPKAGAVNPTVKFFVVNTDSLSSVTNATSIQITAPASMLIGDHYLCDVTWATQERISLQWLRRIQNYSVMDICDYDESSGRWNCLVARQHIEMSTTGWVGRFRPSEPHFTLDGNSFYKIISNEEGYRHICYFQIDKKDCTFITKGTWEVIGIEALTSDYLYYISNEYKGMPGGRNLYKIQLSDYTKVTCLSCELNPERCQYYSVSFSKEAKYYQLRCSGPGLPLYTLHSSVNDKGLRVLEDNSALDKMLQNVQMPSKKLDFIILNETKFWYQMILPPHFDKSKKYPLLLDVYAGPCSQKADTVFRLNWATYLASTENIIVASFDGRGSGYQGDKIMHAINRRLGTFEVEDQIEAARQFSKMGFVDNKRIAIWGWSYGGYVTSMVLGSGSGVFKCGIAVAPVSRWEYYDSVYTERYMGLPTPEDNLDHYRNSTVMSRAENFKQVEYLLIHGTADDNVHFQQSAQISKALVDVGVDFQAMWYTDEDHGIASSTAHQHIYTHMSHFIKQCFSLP
Procedure: The effect of DTBZ on DDP-IV was determined using the DPP profiling service from BPS Bioscience, Inc. (San Diego, Calif.).

VMAT2 [2] = biological target: T2, VMAT2 (Rattus norvegicus, UniProt Q01827); assay: Fake Fluorescent Neurotransmitter (FFN) uptake high throughput assay in INS 832/13 cells; format: cell-based; details: for block of FFN uptake/transport: one hour preincubation
T2 construct: endogenous in cells; host or cells: rat INS 832/13 insulinoma cells
T2 sequence (Q01827 whole entry): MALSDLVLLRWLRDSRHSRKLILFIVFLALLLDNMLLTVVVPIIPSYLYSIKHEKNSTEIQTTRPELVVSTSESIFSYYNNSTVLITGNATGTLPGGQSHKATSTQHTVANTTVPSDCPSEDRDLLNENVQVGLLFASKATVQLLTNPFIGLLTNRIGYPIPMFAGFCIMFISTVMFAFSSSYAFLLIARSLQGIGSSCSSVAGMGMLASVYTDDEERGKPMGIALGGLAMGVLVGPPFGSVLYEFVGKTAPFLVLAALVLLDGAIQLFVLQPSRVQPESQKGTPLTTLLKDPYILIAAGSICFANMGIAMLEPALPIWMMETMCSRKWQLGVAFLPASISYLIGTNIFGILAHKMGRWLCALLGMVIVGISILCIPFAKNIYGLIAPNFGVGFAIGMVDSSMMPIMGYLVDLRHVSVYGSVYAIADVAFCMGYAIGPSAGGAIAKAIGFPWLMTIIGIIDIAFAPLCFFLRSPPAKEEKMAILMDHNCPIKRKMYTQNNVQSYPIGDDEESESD
Excerpt: A high throughput (HTP) assay was developed to screen for compounds that interact with, e.g., bind to, VMAT2. The HTP exploits a class of compounds called Fake Fluorescent Neurotransmitters (FFN) that share the following characteristics a) low molecular weight and sufficiently hydrophilic to be water soluble; b) in aqueous buffer (pH 7), the excitation maxima is around 380-406 nm and the emission maxima is around 501 nm; and c) similar Kd for VMAT2 as dopamine. To validate the use of these compounds in beta cell lines (positive for VMAT2) the following set of experiments were performed.
The rat INS 832/13 cell line was selected because it secretes insulin in response to glucose concentrations in the physiological range and can be shown to contain VMAT2 by PCR. […] INS cells were grown on cover slips in normal media, then pretreated with and without DTBZ in low glucose media for one hour and then loaded with FFN (GH206). The distribution of fluorescent dye was then examined under a fluorescent microscope. The FFN distributes itself intracellularly in a punctate pattern similar, if not identical, to insulin containing granules of this cell line (data not shown). […] For better quantitation of the fluorescent signal, the cells were grown in […] and the same experiment substantially repeated. Briefly, cells were grown to confluence in complete high glucose media, then incubated for one hour in low glucose media. DTBZ was then added to the wells for one hour, followed with a second one hour incubation with FFN. Wells were then washed and the fluorescent signal (380 exc, 512 emm) measured in a multiwell fluorometer (Synergy HT Multi-Mode Microplate Reader).

purified rat islets = assay: Static glucose stimulated insulin secretion in purified islets; format: cell-based; details: 100 nM DTBZ
Procedure: Rat pancreas digestion, islet isolations, and static insulin secretion assays were performed as previously described (Niswender et al. 2005; Sweet, et al. 2004; Sweet and Gilbert 2006). Purified islets were cultured in RPMI 1640 culture media with 10% fetal bovine serum at 37° C. in humidified air (5% CO2) for 18 to 24 hours. Assessment of insulin secretion in static media was carried out as follows. Islets were handpicked twice into a Petri dishes containing Krebs-Ringer bicarbonate (KRB) buffer (with 3 mM glucose and 0.1% BSA) and pre-incubated for 60 minutes (37° C. and 5% CO2). Subsequently, batches of 100 islets (in quadruplicate) were transferred into 96-well plates containing 200 μl of KRB with either 3 or 20 mM glucose, with or without 100 nM DTBZ and incubated for 60 minutes. The supernatant was removed and the insulin was measured using ELISA (ALPCO, Windham, N.H.).

VMAT1 = biological target: T3, VMAT1 (Homo sapiens, UniProt P54219); details: cited from earlier work
T3 sequence (P54219 1-525): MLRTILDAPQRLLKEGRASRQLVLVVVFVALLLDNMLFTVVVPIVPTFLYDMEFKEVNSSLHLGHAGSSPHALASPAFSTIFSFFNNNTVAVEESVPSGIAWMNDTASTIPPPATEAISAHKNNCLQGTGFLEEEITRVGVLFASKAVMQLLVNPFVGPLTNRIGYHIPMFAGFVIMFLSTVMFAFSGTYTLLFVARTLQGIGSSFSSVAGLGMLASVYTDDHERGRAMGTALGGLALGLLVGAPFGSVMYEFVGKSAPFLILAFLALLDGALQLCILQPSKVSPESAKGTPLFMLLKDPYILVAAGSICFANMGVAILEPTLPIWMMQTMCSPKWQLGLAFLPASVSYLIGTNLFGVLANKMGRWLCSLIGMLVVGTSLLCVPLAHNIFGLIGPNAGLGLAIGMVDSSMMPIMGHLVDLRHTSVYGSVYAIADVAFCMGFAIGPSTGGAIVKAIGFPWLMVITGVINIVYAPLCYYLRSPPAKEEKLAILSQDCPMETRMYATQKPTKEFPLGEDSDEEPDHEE

STZ treated rats = assay: IPGTT and insulin in streptozotocin (STZ) treated rats; format: in vivo, rat; details: TBZ 1.5 mg/Kg
Procedure: as §1
STZ solution was prepared fresh by dissolving it in 0.1 M citrate buffer (pH 5.5) and terminally sterile filtered. Control Lewis age and weight matched rats received a 0.5 ml/kg citrate vehicle alone via intraperitoneal injection. […]
Blood samples were collected between 12:00 noon and 2:00 p.m. from a superficial blood vessel in the tails of the rats following 6 hours of fasting. The fasting blood glucose (BG) levels of the rats were measured using an Accu-Check blood glucose monitoring system (Roche Diagnostics, Sommerville, N.J.). […] Blood glucose concentrations were measured immediately on these samples and the remainder processed. […]
as §3, with “respectively.” for “respectively. To validate the test, saline injections were performed by the same method.”

Lewis rats [3] = assay: Plasma insulin and glucagon during IPGTT; format: in vivo, rat
Procedure: as §2, with “The” for “Blood samples were collected between 12:00 noon and 2:00 p.m. from a superficial blood vessel in the tails of the rats following 6 hours of fasting. The”, “([…],” for “(Weksler-Zangen,”, “-80°” for “−80°”, “analysis. Insulin and glucagon concentration measurements in rat plasma were performed by ELISA as per the manufacturer's instructions using kits from Linco Research Inc. (St. Charles, Mich.) and Alpco Diagnostics (Salem, N.H.), respectively. To validate the test, saline injections were performed by the same method. […] The area under the insulin, glucagon and IPGTT glucose concentration×time curve (AUC IPGTT) was calculated by the trapezoidal rule.” for “analysis.”

VMAT2 [4] = biological target: VMAT2 (Homo sapiens, UniProt Q05940); details: cited from earlier work
VMAT2 (Homo sapiens, UniProt Q05940), sequence (Q05940 whole entry): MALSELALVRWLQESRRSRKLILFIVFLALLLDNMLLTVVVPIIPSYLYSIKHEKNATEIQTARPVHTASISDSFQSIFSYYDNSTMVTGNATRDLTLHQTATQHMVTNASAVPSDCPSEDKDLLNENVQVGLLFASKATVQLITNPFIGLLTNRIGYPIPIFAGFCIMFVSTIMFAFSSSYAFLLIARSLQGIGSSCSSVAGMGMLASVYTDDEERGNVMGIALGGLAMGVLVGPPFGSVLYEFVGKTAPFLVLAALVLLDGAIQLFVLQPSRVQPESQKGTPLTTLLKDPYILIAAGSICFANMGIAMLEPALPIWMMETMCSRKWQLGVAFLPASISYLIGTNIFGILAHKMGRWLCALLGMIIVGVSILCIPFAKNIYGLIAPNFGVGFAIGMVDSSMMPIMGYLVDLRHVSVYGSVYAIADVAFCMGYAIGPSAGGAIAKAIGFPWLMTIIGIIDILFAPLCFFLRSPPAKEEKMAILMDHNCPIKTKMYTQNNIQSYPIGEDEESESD

[5] = rats; cited from earlier work
Lewis rats [6] = assay: Dopamine content of brain and pancreas tissue by ELISA after TBZ; format: in vivo, rat; details: 1.5 mg/Kg i.v., one hour after injection
Procedure: Euthanasia was performed by exsanguination of the anesthetized animal. Brain and pancreas were harvested as quickly as possible and frozen at −80° C. until use. […] The tissue extract was centrifuged at 10,000×g at 4° C. to remove debris and the total protein was estimated by reading the absorbance at 280 nm.

rats = details: cited from earlier work
VMAT2 [7] = biological target: T2, VMAT2; assay: PET displacement of [11C]DTBZ in pancreas; format: in vivo; details: cold compound 2 mg/kg, 30 minutes after radioligand
Procedure: PET scans were performed on 12-14-week-old Lewis male rats. Prior to imaging, the animals were anesthetized by isoflurane inhalation. After a transmission scan of the area of interest had been acquired (used to perform attenuation correction of the emission data), the radioligand [^11C]DTBZ was administered (0.5-1.0 μCi/gm) in saline as a bolus injection via the penile vein. PET scans of the animals were acquired dynamically to 90 minutes post-injection on a Concorde microPET-R4 (CTI Molecular Imaging (Knoxville, Tenn.)). The scanner provided a 100×80 mm field of view with a reconstructed resolution of 2.25 mm in the central 40 mm of the field of view.
At thirty minutes post injection of [^11C]DTBZ, animals received a second injection via the penile vein of cold analog. PET data were processed using an attenuation correction matrix obtained by transmission scans and images were reconstructed using Fourier rebinning, followed by two-dimensional, filtered back projection using microPET manager software (CTI Molecular Imaging (Knoxville, Tenn.)).
To test whether the strong hypoglycemic effect of compound 8 is conferred by binding to VMAT2 in beta cells, a PET study in rats was performed. The animals were treated with radiolabeled DTBZ, and the uptake of [^11C]DTBZ in pancreas was monitored by PET scan in the presence of an excess of compound 8.

COc1ccc(C2CC(O)C(CC(C)C)CN2)cc1OC (racemic) [compound 1]
hypoglycemic activity in IPGTT (improvement of glucose tolerance) (Lewis rats [1]): less potent than TBZ

COc1cc2c(cc1OC)[C@H]1C[C@@H](O)[C@H](CC(C)C)CN1CC2 [DTBZ, dihydrotetrabenazine]
effect on DPP-IV (DPP-IV): no effect | block of FFN uptake/transport (VMAT2 [2]): able to block uptake of FFN | enhancement of glucose stimulated insulin secretion (purified rat islets; high glucose (20 mM), 60 minutes): two to three fold | increase in insulin secretion (purified rat islets; low glucose (3 mM)): not statistically significant

N[C@@H](Cc1ccc(O)c(O)c1)C(=O)O [L-DOPA, L-3,4-dihydroxyphenylalanine]
effect on TBZ-lowered AUC IPGTT (Lewis rats [1]; L-DOPA 6.0 mg/Kg I.P., one hour after TBZ, concurrent with glucose): reverse the effects of TBZ

COc1cc2c(cc1OC)C1CC(=O)C(CC(C)C)CN1CC2 (stereo not drawn) [TBZ, tetrabenazine]
reduced affinity towards VMAT1 versus VMAT2 (VMAT1): more than 10,000 fold | AUC IPGTT (STZ treated rats; STZ treated rats): decreased | increase of AUC insulin (STZ treated rats; STZ treated rats which maintained glucose dependant insulin secretion): 50%-80% | AUC plasma glucagon (Lewis rats [3]; i.v. TBZ and glucose challenge): lower relative to controls | dissociation constant (VMAT2 [4]): nanomolar range | plasma elimination half life, t1/2 [5]: 2 h | reduction of glucose excursion (AUC IPGTT) (Lewis rats [1]; 2.25 μg/gm body weight i.v., older male Lewis rats >11 weeks): approximately 35% | decrease of AUC IPGTT (Lewis rats [1]): 26% | baseline fasting glucose concentration versus control animals (Lewis rats [1]; about 1 hour after TBZ, before glucose challenge): no reproducible differences | AUC IPGTT (Lewis rats [1]; chronic administration, approximately 0.1 mg/Kg body weight for five days): suppressed the AUC IPGTT in a fashion similar to the single high dose | AUC IPGTT (Lewis rats [1]; doses higher than 5.0 mg/Kg): increasingly variable, often surpassing that of control levels | glucose tolerance enhancing effect (AUC IPGTT) (Lewis rats [1]; doses lower than 0.3 mg/Kg): undetectable | dopamine content of brain (Lewis rats [6]): significantly reduced | reduction of dopamine levels in the brain (rats): 40% | reduction of norepinephrine levels in the brain (rats): 41% | reduction of serotonin levels in the brain (rats): 44%

COc1ccc(C2CC(OCC(C)C)=CC(=O)N2)cc1OC (stereo not drawn) [compound 8]
binding to VMAT2, displacement of [11C]DTBZ in the endocrine pancreas, relative to DTBZ (VMAT2 [7]): at least a weak binding | effect on DPP-IV (DPP-IV): negative | activity on a per mole basis in blocking FFN transport (VMAT2 [2]): less than that of DTBZ | block of FFN uptake/transport (VMAT2 [2]): able to block FFN transport into INS vesicles | decrease of AUC IPGTT (Lewis rats [1]): 45% | hypoglycemic activity in IPGTT (improvement of glucose tolerance) (Lewis rats [1]): potent hypoglycemic effect

COC1=CC(=O)N2CCc3cc(OC)c(OC)cc3C2C1 (stereo not drawn) [compound 15]
hypoglycemic activity in IPGTT (improvement of glucose tolerance) (Lewis rats [1]): active but less potent

NCCc1ccc(O)c(O)c1 [dopamine]
effect on insulin enhancement by TBZ (Lewis rats [3]; dopamine i.v. at the same time as glucose): partially blocked the insulin enhancing effects of TBZ
